Data taken from the supplement of paper PMC10307832.

Experiments:
Experiment in all cases: relative viability (nuclei count vs DMSO), 5 days (fraction); higher = more cells survive
[1] = tested on: A549
How it was run: (§1)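 Lung cancer cell lines in 1536-well plates got either a single drug or a fixed anchor-drug dose together with five library-drug doses (not always all listed) in √10 steps, by pin tool, on the day after seeding. Nuclei were counted after 5 days, and relative viability is the treated-to-vehicle ratio of nuclei counts. Values are medians of duplicate plates.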

[2] = tested on: Calu-6
How it was run: as §1

[3] = tested on: EBC-1
How it was run: as §1

[4] = tested on: HCC-78
How it was run: as §1

[5] = tested on: IA-LM
How it was run: as §1

[6] = tested on: NCI-H1299
How it was run: as §1

[7] = tested on: NCI-H1703
How it was run: as §1

[8] = tested on: NCI-H2009
How it was run: as §1

[9] = tested on: NCI-H460
How it was run: as §1

[10] = tested on: NCI-H661
How it was run: as §1

Compound: O=c1cc(-c2cccc3c2Sc2ccccc2S3)oc(N2CCOCC2)c1 + C[C@]1(O)C[C@@H](c2nc(-c3ccc4ccc(-c5ccccc5)nc4c3)c3c(N)nccn32)C1 [Linsitinib] (partner 1 µM)
- relative viability ([1]; first compound 0.08 µM): 0.586
- relative viability ([1]; first compound 0.253 µM): 0.863
- relative viability ([1]; first compound 0.8 µM): 0.564
- relative viability ([1]; first compound 2.53 µM): 0.583
- relative viability ([1]; first compound 8 µM): 0.666
- relative viability ([2]; first compound 0.08 µM): 0.909
- relative viability ([2]; first compound 0.253 µM): 1.08
- relative viability ([2]; first compound 0.8 µM): 0.988
- relative viability ([2]; first compound 2.53 µM): 0.934
- relative viability ([2]; first compound 8 µM): 1.02
- relative viability ([3]; first compound 0.08 µM): 0.706
- relative viability ([3]; first compound 0.253 µM): 1.14
- relative viability ([3]; first compound 0.8 µM): 0.828
- relative viability ([3]; first compound 2.53 µM): 0.871
- relative viability ([3]; first compound 8 µM): 0.91
- relative viability ([4]; first compound 0.08 µM): 0.561
- relative viability ([4]; first compound 0.253 µM): 0.746
- relative viability ([4]; first compound 0.8 µM): 0.41
- relative viability ([4]; first compound 2.53 µM): 0.457
- relative viability ([4]; first compound 8 µM): 0.575
- relative viability ([5]; first compound 0.08 µM): 0.695
- relative viability ([5]; first compound 0.253 µM): 0.919
- relative viability ([5]; first compound 0.8 µM): 0.491
- relative viability ([5]; first compound 2.53 µM): 0.465
- relative viability ([5]; first compound 8 µM): 0.343
- relative viability ([6]; first compound 0.08 µM): 0.987
- relative viability ([6]; first compound 0.253 µM): 1
- relative viability ([6]; first compound 0.8 µM): 1.05
- relative viability ([6]; first compound 2.53 µM): 1.03
- relative viability ([6]; first compound 8 µM): 0.984
- relative viability ([7]; first compound 0.08 µM): 0.237
- relative viability ([7]; first compound 0.253 µM): 0.636
- relative viability ([7]; first compound 0.8 µM): 1.02
- relative viability ([7]; first compound 2.53 µM): 0.779
- relative viability ([7]; first compound 8 µM): 0.636
- relative viability ([8]; first compound 0.08 µM): 1.17
- relative viability ([8]; first compound 0.253 µM): 1.22
- relative viability ([8]; first compound 0.8 µM): 1.19
- relative viability ([8]; first compound 2.53 µM): 1.12
- relative viability ([8]; first compound 8 µM): 1.11
- relative viability ([9]; first compound 0.08 µM): 0.991
- relative viability ([9]; first compound 0.253 µM): 0.997
- relative viability ([9]; first compound 0.8 µM): 1.08
- relative viability ([9]; first compound 2.53 µM): 0.796
- relative viability ([9]; first compound 8 µM): 0.791
- relative viability ([10]; first compound 0.08 µM): 0.507
- relative viability ([10]; first compound 0.253 µM): 0.473
- relative viability ([10]; first compound 0.8 µM): 0.55
- relative viability ([10]; first compound 2.53 µM): 0.527
- relative viability ([10]; first compound 8 µM): 0.591

Compound: O=c1cc(N2CCOCC2)oc2c(-c3cccc4c3sc3ccccc34)cccc12 + CS(=O)(=O)N1CCN(Cc2cc3nc(-c4cccc5[nH]ncc45)nc(N4CCOCC4)c3s2)CC1 [Pictilisib] (partner 1 µM)
- relative viability ([1]; first compound 0.01 µM): 0.582
- relative viability ([1]; first compound 0.03162 µM): 0.526
- relative viability ([1]; first compound 0.1 µM): 0.601
- relative viability ([1]; first compound 0.3162 µM): 0.516
- relative viability ([1]; first compound 1 µM): 0.599
- relative viability ([2]; first compound 0.01 µM): 0.879
- relative viability ([2]; first compound 0.03162 µM): 0.917
- relative viability ([2]; first compound 0.1 µM): 1.06
- relative viability ([2]; first compound 0.3162 µM): 0.9
- relative viability ([2]; first compound 1 µM): 1.04
- relative viability ([3]; first compound 0.01 µM): 0.409
- relative viability ([3]; first compound 0.03162 µM): 0.35
- relative viability ([3]; first compound 0.1 µM): 0.338
- relative viability ([3]; first compound 0.3162 µM): 0.378
- relative viability ([3]; first compound 1 µM): 0.371
- relative viability ([4]; first compound 0.01 µM): 0.209
- relative viability ([4]; first compound 0.03162 µM): 0.204
- relative viability ([4]; first compound 0.1 µM): 0.178
- relative viability ([4]; first compound 0.3162 µM): 0.242
- relative viability ([4]; first compound 1 µM): 0.191
- relative viability ([5]; first compound 0.01 µM): 0.304
- relative viability ([5]; first compound 0.03162 µM): 0.34
- relative viability ([5]; first compound 0.1 µM): 0.271
- relative viability ([5]; first compound 0.3162 µM): 0.357
- relative viability ([5]; first compound 1 µM): 0.337
- relative viability ([6]; first compound 0.01 µM): 0.922
- relative viability ([6]; first compound 0.03162 µM): 0.688
- relative viability ([6]; first compound 0.1 µM): 0.897
- relative viability ([6]; first compound 0.3162 µM): 0.816
- relative viability ([6]; first compound 1 µM): 0.801
- relative viability ([7]; first compound 0.01 µM): 0.245
- relative viability ([7]; first compound 0.03162 µM): 0.221
- relative viability ([7]; first compound 0.1 µM): 0.223
- relative viability ([7]; first compound 0.3162 µM): 0.253
- relative viability ([7]; first compound 1 µM): 0.252
- relative viability ([8]; first compound 0.01 µM): 0.802
- relative viability ([8]; first compound 0.03162 µM): 0.864
- relative viability ([8]; first compound 0.1 µM): 0.735
- relative viability ([8]; first compound 0.3162 µM): 0.796
- relative viability ([8]; first compound 1 µM): 0.813
- relative viability ([9]; first compound 0.01 µM): 0.403
- relative viability ([9]; first compound 0.03162 µM): 0.342
- relative viability ([9]; first compound 0.1 µM): 0.394
- relative viability ([9]; first compound 0.3162 µM): 0.384
- relative viability ([9]; first compound 1 µM): 0.319
- relative viability ([10]; first compound 0.01 µM): 0.362
- relative viability ([10]; first compound 0.03162 µM): 0.352
- relative viability ([10]; first compound 0.1 µM): 0.376
- relative viability ([10]; first compound 0.3162 µM): 0.409
- relative viability ([10]; first compound 1 µM): 0.331
